Reference: patent US5266566A, “Method of treating fungal infections using sterodial ester compounds” (British Technology Group Limited, priority 1989, dated 1993)
In brackets after ≈: the same amount, converted by molar mass. Entries after “also recorded” stand apart in the source; their conditions may differ. Like-named read-outs stand apart in the source and are kept apart here.

Tests used:
Experiment in all cases: Disc diffusion antifungal test (zones of inhibition, approximate MIC)
Type in all cases: cell-based
[1] = tested on: Candida albicans NCYC 597; details: for MIC: Candida albicans; for Activity against Candida albicans (in words): result in words
Method: (§1) Candida albicans NCYC 597; Trichophyton mentagrophytes NCPF 224 and Microsporum audonii NCPF 638 were used throughout as test organisms. These are open deposits at the National Collection of Yeast Cultures, Norwich UK and the National Collection of Pathogenic Fungi of the Commonwealth Mycological Institute, Kew UK.
(§2) All organisms were maintained in a nutrient broth containing (gl^-1): Lab Lemco (Oxoid), 5; Peptone (Oxoid), 5; NaCl, 10. Cultures for testing antimicrobial activity were grown in this medium for 18 h prior to use. Solidified media were prepared by the addition of Agar (Oxoid No. 3) 1.5% w/v.
(§3) Antifungal activity was estimated using solutions of the compound (as the free acid) in dimethyl sulphoxide. A range of concentrations was used for each compound to permit calculation of an approximate MIC. 13 mm discs (Whatman) were soaked in a solution of the appropriate dilution, either allowed to dry, or placed directly onto the surface of nutrient agar plates seeded with the required test organism.
(§4) After 24 h incubation the diameters of zones of inhibition were measured. After a further 24 h incubation, the plates were re-examined and zones re-measured. The compounds were tested in three groups.

[2] = tested on: Microsporum audonii NCPF 638; details: for MIC: Microsporum
Method: as §1, §2, §3, §4

[3] = tested on: Trichophyton mentagrophytes NCPF 224
Method: as §1, §2, §3, §4

[4] = NCYC597, read-out: MIC C. albicans, Table 1, Group 1 tests
[5] = NCYC597, read-out: MIC C. albicans, Table 3, Group 3 tests
[6] = NCPF638, read-out: MIC M. aud., Table 1, Group 1 tests
[7] = NCPF224, read-out: MIC T. ment., Table 1, Group 1 tests
[8] = NCPF638, Table 2, Group 2 tests, read-out: MIC Microsporum audonii
[9] = NCPF224, Table 2, Group 2 tests, read-out: MIC Trichophyton mentagrophytes
[10] = NCYC597, read-out: MIC Candida albicans, Table 2, Group 2 tests
[11] = NCPF638, read-out: MIC Microsporum audonii, Table 2, Group 2 tests
[12] = NCPF224, read-out: MIC Trichophyton mentagrophytes, Table 2, Group 2 tests
[13] = NCYC597, Table 1, Group 1 tests, read-out: MIC C. albicans
[14] = NCPF638, Table 1, Group 1 tests, read-out: MIC M. aud.
[15] = NCPF638, Table 3, Group 3 tests, read-out: MIC M. aud.
[16] = NCPF224, Table 1, Group 1 tests, read-out: MIC T. ment.
[17] = NCPF224, Table 3, Group 3 tests, read-out: MIC T. ment.

## COC(=O)CC[C@@H](C)[C@H]1CC[C@H]2[C@@H]3[C@H](O)C[C@@H]4C[C@H](O)CC[C@]4(C)[C@H]3CC[C@]12C [Methyl chenodeoxycholate, methyl chenodeoxycholate]
[1]; [4]
  MIC: 20 µg/mL (≈ 49.2 µM)
[1]; [5]
  MIC: 1000 µg/mL (≈ 2460 µM)
[2]; [6]
  MIC: 30 µg/mL (≈ 73.8 µM)
[2]; NCPF638, read-out: MIC M. aud., Table 3, Group 3 tests
  MIC: 800 µg/mL (≈ 1970 µM)
[3]; [7]
  MIC: 460 µg/mL (≈ 1130 µM)
[3]; NCPF224, read-out: MIC T. ment., Table 3, Group 3 tests
  MIC: 1000 µg/mL (≈ 2460 µM)

## CCCCOC(=O)CC[C@@H](C)[C@H]1CC[C@H]2[C@@H]3CC[C@@H]4C[C@H](O)CC[C@]4(C)[C@H]3C[C@H](O)[C@]12C [Butyl deoxycholate, n-butyl deoxycholate]
[2]; [8]
  MIC: 875 µg/mL (≈ 1950 µM)
[3]; [9]
  MIC: 850 µg/mL (≈ 1890 µM)

## C[C@H](CCC(=O)O)[C@H]1CC[C@H]2[C@@H]3[C@H](O)C[C@@H]4C[C@H](O)CC[C@]4(C)[C@H]3C[C@H](O)[C@]12C [Cholic acid, reference compound]
[1]; [4]
  MIC: 390 µg/mL (≈ 955 µM)
[1]; [10]
  MIC: 405 µg/mL (≈ 991 µM)
[2]; [6]
  MIC: 5500 µg/mL (≈ 13500 µM)
[2]; [11]
  MIC: ~5000 µg/mL (≈ 12200 µM)
[3]; [7]
  MIC: 10000 µg/mL (≈ 24500 µM)
[3]; [12]
  MIC: ~10000 µg/mL (≈ 24500 µM)

## C[C@H](CCC(=O)O)[C@H]1CC[C@H]2[C@@H]3CC[C@@H]4C[C@H](O)CC[C@]4(C)[C@H]3CC[C@]12C [Lithocholic acid, reference compound]
[1]; [13]
  MIC: 410 µg/mL (≈ 1090 µM)
[2]; [14]
  MIC: 100 µg/mL (≈ 266 µM)

## COC(=O)CC[C@@H](C)[C@H]1CC[C@H]2[C@@H]3CC[C@@H]4C[C@H](O)CC[C@]4(C)[C@H]3CC[C@]12C [Methyl lithocholate, methyl lithocholate]
[2]; [11]
  MIC: 950 µg/mL (≈ 2430 µM)
[3]; [12]
  MIC: 1000 µg/mL (≈ 2560 µM)

## C[C@H](CCC(=O)O)[C@H]1CC[C@H]2[C@@H]3CC[C@@H]4C[C@H](O)CC[C@]4(C)[C@H]3C[C@H](O)[C@]12C [Deoxycholic acid, reference compound]
[1]; [4]
  MIC: 2100 µg/mL (≈ 5350 µM)
[1]; [5]
  MIC: 1800 µg/mL (≈ 4590 µM)
[1]; [10]
  MIC: 2000 µg/mL (≈ 5090 µM)
[1]
  Activity against Candida albicans (in words): poorer action against Candida
[2]; [14]
  MIC: 30 µg/mL (≈ 76.4 µM)
[2]; [8]
  MIC: 35 µg/mL (≈ 89.2 µM)
[2]; [15]
  MIC: 40 µg/mL (≈ 102 µM)
[2]; result in words
  Activity against Microsporum audonii (in words): very highly effective; also recorded: effective
[3]; [16]
  MIC: 300 µg/mL (≈ 764 µM)
[3]; [9]
  MIC: 310 µg/mL (≈ 790 µM)
[3]; [17]
  MIC: 250 µg/mL (≈ 637 µM)

## CCCCOC(=O)CC[C@@H](C)[C@H]1CC[C@H]2[C@@H]3CC[C@@H]4C[C@H](O)CC[C@]4(C)[C@H]3CC[C@]12C [Butyl lithocholate, n-butyl lithocholate]
[2]; [8]
  MIC: 900 µg/mL (≈ 2080 µM)
[3]; [9]
  MIC: 1100 µg/mL (≈ 2540 µM)

## CCCCOC(=O)CC[C@@H](C)[C@H]1CC[C@H]2[C@@H]3[C@H](O)C[C@@H]4C[C@H](O)CC[C@]4(C)[C@H]3CC[C@]12C [Butyl chenodeoxycholate, n-butyl chenodeoxycholate]
[1]; Table 3, Group 3 tests
  MIC C. albicans: no effect
[2]; [15]
  MIC: 1000 µg/mL (≈ 2230 µM)
[3]; [17]
  MIC: 1500 µg/mL (≈ 3340 µM)

## COC(=O)CC[C@@H](C)[C@H]1CC[C@H]2[C@@H]3[C@H](O)C[C@@H]4C[C@H](O)CC[C@]4(C)[C@H]3C[C@H](O)[C@]12C [Methyl cholate, methyl cholate]
[1]; [13]
  MIC: 3500 µg/mL (≈ 8280 µM)
[2]; [14]
  MIC: 50 µg/mL (≈ 118 µM)
[3]; [16]
  MIC: 80 µg/mL (≈ 189 µM)

## C[C@H](CCC(=O)O)[C@H]1CC[C@H]2[C@@H]3[C@H](O)C[C@@H]4C[C@H](O)CC[C@]4(C)[C@H]3CC[C@]12C [Chenodeoxycholic acid, reference compound]
[1]; [4]
  MIC: 140 µg/mL (≈ 357 µM)
[2]; [14]
  MIC: 1000 µg/mL (≈ 2550 µM)
[3]; [16]
  MIC: 1300 µg/mL (≈ 3310 µM)

## COC(=O)CC[C@@H](C)[C@H]1CC[C@H]2[C@@H]3CC[C@@H]4C[C@H](O)CC[C@]4(C)[C@H]3C[C@H](O)[C@]12C [Methyl deoxycholate, methyl deoxycholate]
[1]; [13]
  MIC: 20 µg/mL (≈ 49.2 µM)
[1]; NCYC597, Table 2, Group 2 tests, read-out: MIC Candida albicans
  MIC: 31 µg/mL (≈ 76.2 µM)
[1]; NCYC597, Table 3, Group 3 tests, read-out: MIC C. albicans
  MIC: 28 µg/mL (≈ 68.9 µM)
[1]; Group 2 tests, many resistant colonies in the zone
  Homogeneity of effect in the zone of inhibition: not homogeneous
[1]
  Activity against Candida albicans (in words): highly effective; also recorded: outstanding
[2]; [14]
  MIC: 520 µg/mL (≈ 1280 µM)
[2]; [8]
  MIC: 200 µg/mL (≈ 492 µM)
[2]; [15]
  MIC: 450 µg/mL (≈ 1110 µM)
[3]; [16]
  MIC: 900 µg/mL (≈ 2210 µM)
[3]; [9]
  MIC: 250 µg/mL (≈ 615 µM)
[3]; [17]
  MIC: 500 µg/mL (≈ 1230 µM)
